The values below come from patent publication US6017880A, “Inhibition of retrovirus infection” (Amgen Inc., priority 1995, dated 2000).

In this assay the test system is U937 cells. Kind of assay: Number of SLPI binding sites on PMA-induced U937 cells (Scatchard plot). The format is cell-based, human. The note with it: PMA 25 ng per ml, 48 hours, versus non-induced cells. Here is the method: U937 cells were induced by 13-phorbol-12-myristate acetate ("PMA").
U937 cells at an initial concentration of 10,000 cells per ml were placed in two flasks. PMA was added to one flask at a final concentration of 25 ng per ml. After 48 hours, cells were harvested from both flasks. Using the method of Dripps et al., J. Biol. Chem., Vol. 266, No. 16, pp. 10331-10336 (1991), and labelling with I-125, having a specific activity of 91.5 Curries per millimole, the number of SLPI binding sites was determined. […] In this experiment, the Kd in non-induced cells was 1.1 lnM; The Kd in PMA-induced cells was 1.0 nM. The reduction in the number of SLPI binding sites in the PMA-induced cells is consistent with SLPI binding to elastase and cathepsin G on the cell surface.

Take `CCCCCCCCCCCCCC(=O)O[C@@H]1[C@@H](C)[C@@]2(O)[C@@H](C=C(CO)C[C@]3(O)C(=O)C(C)=C[C@@H]23)[C@@H]2C(C)(C)[C@]12OC(C)=O` [PMA, 13-phorbol-12-myristate acetate]: the “Reduction in the number of SLPI binding sites” value came to 70%.
